Reference: publication PMC4919188 (Nature, 2016)

Key:
[1] = system: high-threshold colonic afferents from healthy mice; assay: Ex vivo gut-nerve recording, high-threshold colonic afferents, healthy mice; parameters: species or system mouse; details: ICA-121432 with or without Hm1a (100 nM), afferents/total
[2] = system: high-threshold colonic afferents from CVH mice; assay: Ex vivo gut-nerve recording, high-threshold colonic afferents, CVH mice; parameters: species or system mouse
[3] = system: P0 mouse TG neurons; assay: Ratiometric calcium imaging, P0 mouse TG neurons; format: cell-based; details: ICA-121431 500 nM, SGTx1 500 nM; P0 mouse neurons (Extended Data Fig. 1d)
[4] = system: nerve-injury evoked mechanical allodynia; details: cited from earlier work
[5] = system: mouse paw mechanical response threshold; assay: Von Frey test, mechanical sensitivity; format: in vivo; details: native Hm1b 500 nM intraplantar, n = 5

Compound: O=C(Nc1ccc(S(=O)(=O)Nc2nccs2)cc1)C(c1ccccc1)c1ccccc1 [ICA-121431]
- afferents unaltered by ICA [1]: 5/10
- sensitizing effects of Hm1a ([2]; ICA-121431 with Hm1a): blocked the sensitizing effects of Hm1a
- afferents unaltered by ICA ([2]; ICA-121432 with or without Hm1a, afferents/total): 3/10
- block of SGTx1-evoked calcium responses [3]: only partially blocked

Compound: NC(=O)c1cn(Cc2c(F)cccc2F)nn1 [rufinamide]
- effect on nerve-injury evoked mechanical allodynia [4]: diminish nerve-injury evoked mechanical allodynia

Compound: Hm1b: inhibitor cysteine knot (ICK) peptide from venom of the tarantula Heteroscodra maculata
- mechanical sensitization compared with Hm1a [5]: Equivalent mechanical sensitization
